The numbers were not newly measured in patent US20120115783A1, “PEPTIDOMIMETIC MACROCYCLES” (Alleron therapeutics, Inc, priority 2008, published 2012), which cites them from elsewhere.

For the data set, the system named is HCT116 tumour xenografts.

Regarding `CN1C(=O)[C@]2(Cc3cn([C@]45C[C@@]67SS[C@@](CO)(C(=O)N6[C@H]4Nc4ccccc45)N(C)C7=O)c4ccccc34)SS[C@@]1(CO)C(=O)N2C` [chetomin], the “growth of HCT116 tumour xenografts” value (HCT116 tumour xenografts) is “inhibited their growth”. In addition, the “hypoxia-inducible transcription within HCT116 tumour xenografts” value (within HCT116 tumour xenografts, pharmacological inhibition of HIF-1α) is on record as “inhibited hypoxia-inducible transcription”.
